From the supplement of paper PMC4862054

Test system: MFM-223
Details: 72 h
How it was run: (§1)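 In this assay, breast cancer cell lines spent 72 h with compound at 5 concentrations in 10-fold steps over a compound-specific 10,000-fold range. The first readout was cell death by CellTox Green fluorescence, and the second was viability by CellTiter-Glo luminescence, each normalised per plate to 0.1 % DMSO and a positive kill control. EC50 came from the dose-response curves, censored at the top concentration.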

Structure (SMILES)	EC50, CellTiter-Glo [µM]
CCN(CC)CCCC(C)Nc1ccnc2cc(Cl)ccc12 (stereo not given) [Chloroquine]	13.7
C=CCn1c(=O)c2cnc(Nc3ccc(N4CCN(C)CC4)cc3)nc2n1-c1cccc(C(C)(C)O)n1 [MK1775]	0.25
CCNC(=O)c1noc(-c2cc(C(C)C)c(O)cc2O)c1-c1ccc(CN2CCOCC2)cc1 [NVP-AUY922]	0.0102
O=[N+]([O-])c1ccc2c(c1)S(=O)(=O)C=C2 [Stattic]	2.73
O=C(CCCCCCC(=O)Nc1ccccc1)NO [Vorinostat]	5.67

Test system: SK-BR-3
Details: 72 h
How it was run: as §1

EC50, CellTiter-Glo [µM]	Structure (SMILES)
0.00709	CCNC(=O)c1noc(-c2cc(C(C)C)c(O)cc2O)c1-c1ccc(CN2CCOCC2)cc1 [NVP-AUY922]
8.89	O=[N+]([O-])c1ccc2c(c1)S(=O)(=O)C=C2 [Stattic]
3.47	O=C(CCCCCCC(=O)Nc1ccccc1)NO [Vorinostat]

Further lines, the compound ahead of its results:

Structure (SMILES)	EC50, CellTiter-Glo [µM]
COc1cc(Nc2c(C#N)cnc3cc(OCCCN4CCN(C)CC4)c(OC)cc23)c(Cl)cc1Cl [Bosutinib]	3.12
CCN(CC)CCCC(C)Nc1ccnc2cc(Cl)ccc12 (stereo not given) [Chloroquine]	4.91
C=CCn1c(=O)c2cnc(Nc3ccc(N4CCN(C)CC4)cc3)nc2n1-c1cccc(C(C)(C)O)n1 [MK1775]	0.203

Test system: HDQ-P1
Details: 72 h
How it was run: (§2)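 Each 384-well plate was pre-loaded with compound dissolved in 5 µl medium, received breast cancer cells in 20 µl suspension, and was incubated 72 h. A 2.5 µl addition of CellTiter-Blue for 2 h at 37 °C was followed by a fluorescence read at 560/590 nm. Data were normalised per plate to vehicle and a positive kill control and checked by Z'-factor. EC50 was fitted from the percent-inhibition dose-response curve, censored at the highest concentration, excluding rows with a drug sensitivity score of zero.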

Structure (SMILES)	EC50, CellTiter-Blue viability [µM]
COc1cc(Nc2c(C#N)cnc3cc(OCCCN4CCN(C)CC4)c(OC)cc23)c(Cl)cc1Cl [Bosutinib]	2.55
C=CCn1c(=O)c2cnc(Nc3ccc(N4CCN(C)CC4)cc3)nc2n1-c1cccc(C(C)(C)O)n1 [MK1775]	0.318
CCNC(=O)c1noc(-c2cc(C(C)C)c(O)cc2O)c1-c1ccc(CN2CCOCC2)cc1 [NVP-AUY922]	0.00972

Test system: BT-474
Details: 72 h
How it was run: as §2

EC50, CellTiter-Blue viability [µM]	Structure (SMILES)
0.0234	CCNC(=O)c1noc(-c2cc(C(C)C)c(O)cc2O)c1-c1ccc(CN2CCOCC2)cc1 [NVP-AUY922]
2.29	O=C(CCCCCCC(=O)Nc1ccccc1)NO [Vorinostat]

Continued, compound first:

Structure (SMILES)	EC50, CellTiter-Blue viability [µM]
COc1cc(Nc2c(C#N)cnc3cc(OCCCN4CCN(C)CC4)c(OC)cc23)c(Cl)cc1Cl [Bosutinib]	3.12
C=CCn1c(=O)c2cnc(Nc3ccc(N4CCN(C)CC4)cc3)nc2n1-c1cccc(C(C)(C)O)n1 [MK1775]	0.249

Test system: BT-474
Details: 72 h
Remark: another data set of the same source
Experimental: (§3)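 Drug sensitivity and resistance testing (DSRT) of breast cancer cell lines in 384-well plates, 5 concentrations in 10-fold dilutions over a compound-specific 10,000-fold range. After 72 h, cytotoxicity was read by CellTox Green fluorescence and viability by CellTiter-Glo luminescence (multiplexed), normalised to DMSO and benzethonium chloride controls. EC50 is the inflection point of the fitted dose-response curve (bottom asymptote free, so it can be relative for partial curves) and is censored at the highest tested concentration. Rows with DSS 0 (no meaningful response) were excluded.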

Structure (SMILES)	EC50, CellTox Green [µM]
COc1cc(Nc2c(C#N)cnc3cc(OCCCN4CCN(C)CC4)c(OC)cc23)c(Cl)cc1Cl [Bosutinib]	2.83
CCN(CC)CCCC(C)Nc1ccnc2cc(Cl)ccc12 (stereo not given) [Chloroquine]	4.95
C=CCn1c(=O)c2cnc(Nc3ccc(N4CCN(C)CC4)cc3)nc2n1-c1cccc(C(C)(C)O)n1 [MK1775]	0.928
CCNC(=O)c1noc(-c2cc(C(C)C)c(O)cc2O)c1-c1ccc(CN2CCOCC2)cc1 [NVP-AUY922]	0.219
O=[N+]([O-])c1ccc2c(c1)S(=O)(=O)C=C2 [Stattic]	1.89
O=C(CCCCCCC(=O)Nc1ccccc1)NO [Vorinostat]	6.41

Test system: BT-549
Details: 72 h
Experimental: as §3

Structure (SMILES)	EC50, CellTox Green [µM]
COc1cc(Nc2c(C#N)cnc3cc(OCCCN4CCN(C)CC4)c(OC)cc23)c(Cl)cc1Cl [Bosutinib]	7.58
CCN(CC)CCCC(C)Nc1ccnc2cc(Cl)ccc12 (stereo not given) [Chloroquine]	24.8
C=CCn1c(=O)c2cnc(Nc3ccc(N4CCN(C)CC4)cc3)nc2n1-c1cccc(C(C)(C)O)n1 [MK1775]	1.43
O=[N+]([O-])c1ccc2c(c1)S(=O)(=O)C=C2 [Stattic]	1.07
O=C(CCCCCCC(=O)Nc1ccccc1)NO [Vorinostat]	> 10

Test system: CAL-120
Details: 72 h
Experimental: as §3

Structure (SMILES)	EC50, CellTox Green [µM]
CCN(CC)CCCC(C)Nc1ccnc2cc(Cl)ccc12 (stereo not given) [Chloroquine]	38.4
C=CCn1c(=O)c2cnc(Nc3ccc(N4CCN(C)CC4)cc3)nc2n1-c1cccc(C(C)(C)O)n1 [MK1775]	1.38
CCNC(=O)c1noc(-c2cc(C(C)C)c(O)cc2O)c1-c1ccc(CN2CCOCC2)cc1 [NVP-AUY922]	> 1
O=[N+]([O-])c1ccc2c(c1)S(=O)(=O)C=C2 [Stattic]	34.3
O=C(CCCCCCC(=O)Nc1ccccc1)NO [Vorinostat]	6.84

Test system: CAL-148
Details: 72 h
Experimental: as §3

Structure (SMILES)	EC50, CellTox Green [µM]
COc1cc(Nc2c(C#N)cnc3cc(OCCCN4CCN(C)CC4)c(OC)cc23)c(Cl)cc1Cl [Bosutinib]	2.05
CCN(CC)CCCC(C)Nc1ccnc2cc(Cl)ccc12 (stereo not given) [Chloroquine]	5.12
C=CCn1c(=O)c2cnc(Nc3ccc(N4CCN(C)CC4)cc3)nc2n1-c1cccc(C(C)(C)O)n1 [MK1775]	0.143
CCNC(=O)c1noc(-c2cc(C(C)C)c(O)cc2O)c1-c1ccc(CN2CCOCC2)cc1 [NVP-AUY922]	0.0295
O=[N+]([O-])c1ccc2c(c1)S(=O)(=O)C=C2 [Stattic]	3.87
O=C(CCCCCCC(=O)Nc1ccccc1)NO [Vorinostat]	8.26

Test system: CAL-51
Details: 72 h
Experimental: as §3

Structure (SMILES)	EC50, CellTox Green [µM]
COc1cc(Nc2c(C#N)cnc3cc(OCCCN4CCN(C)CC4)c(OC)cc23)c(Cl)cc1Cl [Bosutinib]	1.55
CCN(CC)CCCC(C)Nc1ccnc2cc(Cl)ccc12 (stereo not given) [Chloroquine]	50.8
C=CCn1c(=O)c2cnc(Nc3ccc(N4CCN(C)CC4)cc3)nc2n1-c1cccc(C(C)(C)O)n1 [MK1775]	0.154
CCNC(=O)c1noc(-c2cc(C(C)C)c(O)cc2O)c1-c1ccc(CN2CCOCC2)cc1 [NVP-AUY922]	0.0746
O=[N+]([O-])c1ccc2c(c1)S(=O)(=O)C=C2 [Stattic]	1.39
O=C(CCCCCCC(=O)Nc1ccccc1)NO [Vorinostat]	2.66

Test system: CAL-85-1
Details: 72 h
Experimental: as §3

Structure (SMILES)	EC50, CellTox Green [µM]
COc1cc(Nc2c(C#N)cnc3cc(OCCCN4CCN(C)CC4)c(OC)cc23)c(Cl)cc1Cl [Bosutinib]	1.95
CCN(CC)CCCC(C)Nc1ccnc2cc(Cl)ccc12 (stereo not given) [Chloroquine]	20.8
C=CCn1c(=O)c2cnc(Nc3ccc(N4CCN(C)CC4)cc3)nc2n1-c1cccc(C(C)(C)O)n1 [MK1775]	0.331
CCNC(=O)c1noc(-c2cc(C(C)C)c(O)cc2O)c1-c1ccc(CN2CCOCC2)cc1 [NVP-AUY922]	0.0841
